These results are taken from ChEMBL document CHEMBL3217437, “The p53-MDM2/MDMX axis - A chemotype perspective” (Medchemcomm, 2011).

One test relates to A2780. In words: Antiproliferative activity against human A2780 cells. The test is classed as functional, cell-based.
In test [1] the target is T1, Tumour suppressor p53/oncoprotein Mdm2 (Homo sapiens, UniProt P04637+Q00987). Kind of test: Inhibition of p53 interaction to MDM2 (unknown origin) at 1.4 uM by HTRF assay. The test is classed as protein assay.
Target sequence in this assay (P04637 whole entry, looked up): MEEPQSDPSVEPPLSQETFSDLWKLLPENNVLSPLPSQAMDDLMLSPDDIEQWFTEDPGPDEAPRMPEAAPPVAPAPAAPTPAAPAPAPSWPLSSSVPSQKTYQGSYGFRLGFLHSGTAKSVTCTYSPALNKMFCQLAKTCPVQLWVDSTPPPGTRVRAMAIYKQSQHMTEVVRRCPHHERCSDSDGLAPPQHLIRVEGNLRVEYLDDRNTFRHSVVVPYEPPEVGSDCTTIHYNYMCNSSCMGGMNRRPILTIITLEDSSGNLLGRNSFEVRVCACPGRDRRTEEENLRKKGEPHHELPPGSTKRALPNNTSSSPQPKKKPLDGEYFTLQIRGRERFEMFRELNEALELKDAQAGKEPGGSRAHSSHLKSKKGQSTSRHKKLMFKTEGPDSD
Target sequence in this assay (Q00987 whole entry, looked up): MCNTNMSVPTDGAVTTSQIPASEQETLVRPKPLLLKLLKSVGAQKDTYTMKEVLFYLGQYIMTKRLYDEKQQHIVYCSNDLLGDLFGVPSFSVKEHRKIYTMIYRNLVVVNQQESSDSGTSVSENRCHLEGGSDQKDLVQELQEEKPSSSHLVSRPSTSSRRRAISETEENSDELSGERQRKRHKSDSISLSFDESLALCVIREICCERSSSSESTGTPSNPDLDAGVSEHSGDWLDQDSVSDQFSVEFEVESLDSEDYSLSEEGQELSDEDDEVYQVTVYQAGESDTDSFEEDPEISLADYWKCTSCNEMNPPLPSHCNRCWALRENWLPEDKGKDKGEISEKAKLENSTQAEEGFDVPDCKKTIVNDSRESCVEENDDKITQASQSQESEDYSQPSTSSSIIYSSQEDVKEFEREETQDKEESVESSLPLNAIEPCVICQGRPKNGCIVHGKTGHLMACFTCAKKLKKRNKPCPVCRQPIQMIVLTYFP
The target in test [2] is T1, Tumour suppressor p53/oncoprotein Mdm2. In words: Inhibition of p53 interaction to MDM2 (unknown origin) by HTRF assay in presence of 0.02% bovine serum albumin. The test is classed as protein assay. Background: Time-resolved FRET reads energy transfer from a long-lived donor to a nearby acceptor.
Target sequence in this assay (P04637 whole entry): as the sequence (P04637 whole entry, looked up) above
Target sequence in this assay (Q00987 whole entry): as the sequence (Q00987 whole entry, looked up) above
The target of test [3] is Tumour suppressor protein p53/Mdm4 (Homo sapiens, UniProt O15151). Kind of test: Inhibition of p53 interaction to MDMX (unknown origin) by fluorescence polarization assay. The test is classed as protein assay.
In test [4] the target is T1, Tumour suppressor p53/oncoprotein Mdm2. Kind of test: Inhibition of p53 interaction to MDM2 (unknown origin) by HTS assay. The format is protein assay.
Target sequence in this assay (P04637 whole entry): as the sequence (P04637 whole entry, looked up) above
Target sequence in this assay (Q00987 whole entry): as the sequence (Q00987 whole entry, looked up) above
For test [5] the target is unchanged. Kind of test: Inhibition of p53 interaction to MDM2 (unknown origin). The format is protein assay.
Target sequence in this assay (P04637 whole entry): as the sequence (P04637 whole entry, looked up) above
Target sequence in this assay (Q00987 whole entry): as the sequence (Q00987 whole entry, looked up) above
Test [6] in a line: Antiproliferative activity against human DLD1 cells. As to conditions: DLD-1. The test is classed as functional, cell-based.
Test [7] has as its target T1, Tumour suppressor p53/oncoprotein Mdm2. Kind of test: Inhibition of His-tagged p53 interaction to GST-tagged MDM2 (unknown origin). The test is classed as protein assay.
Target sequence in this assay (P04637 whole entry): as the sequence (P04637 whole entry, looked up) above
Target sequence in this assay (Q00987 whole entry): as the sequence (Q00987 whole entry, looked up) above
Another test concerns NCI-H460. Kind of test: Antiproliferative activity against human NCI-H460 cells. The format is functional, cell-based.
The target in test [8] is T1, Tumour suppressor p53/oncoprotein Mdm2. In words: Inhibition of p53 interaction to GST-tagged MDM2 (unknown origin). The test is classed as protein assay.
Target sequence in this assay (P04637 whole entry): as the sequence (P04637 whole entry, looked up) above
Target sequence in this assay (Q00987 whole entry): as the sequence (Q00987 whole entry, looked up) above
Test [9] has the same target. Kind of test: Inhibition of p53 interaction to MDM2 (unknown origin) by fluorescence polarization assay. The format is protein assay. (In general: In fluorescence polarisation assays a small probe gives low polarisation when free and higher when bound to something large.)
Target sequence in this assay (P04637 whole entry): as the sequence (P04637 whole entry, looked up) above
Target sequence in this assay (Q00987 whole entry): as the sequence (Q00987 whole entry, looked up) above

Chain of Tumour suppressor protein p53/Mdm4 (P04637 whole entry): as the sequence (P04637 whole entry, looked up) above
Chain of Tumour suppressor protein p53/Mdm4 (O15151 whole entry): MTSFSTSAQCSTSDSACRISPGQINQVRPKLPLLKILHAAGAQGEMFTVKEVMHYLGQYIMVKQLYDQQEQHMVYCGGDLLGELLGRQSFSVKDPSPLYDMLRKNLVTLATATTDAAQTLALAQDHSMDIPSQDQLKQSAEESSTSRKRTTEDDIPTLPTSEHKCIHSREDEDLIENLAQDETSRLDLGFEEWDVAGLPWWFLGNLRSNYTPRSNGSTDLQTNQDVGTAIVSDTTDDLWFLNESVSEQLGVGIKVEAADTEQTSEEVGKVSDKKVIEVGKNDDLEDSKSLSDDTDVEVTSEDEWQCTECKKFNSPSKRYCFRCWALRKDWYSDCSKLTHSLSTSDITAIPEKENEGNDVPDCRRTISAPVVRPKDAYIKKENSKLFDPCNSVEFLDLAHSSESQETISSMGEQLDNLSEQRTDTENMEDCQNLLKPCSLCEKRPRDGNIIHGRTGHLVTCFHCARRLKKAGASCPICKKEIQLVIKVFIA

By IC50 is commonly meant the concentration that inhibits the measured activity by half. In the test with A2780, `OC1CCc2c(Nc3ccc4c(c3)OCCN4CCc3c[nH]c4ccccc34)ccnc21` (configuration not stated) showed an IC50 of 427 nM.

On to `Fc1cc(Nc2ccncc2)cc(F)c1NCCc1c[nH]c2ccccc12`, for which the IC50 in the test with A2780 was over 10000 nM.

A word on the inhibition: it is the change of the read-out against control, counted positive when it falls. The low end stands for a response near the control, the high end for a response far below the control. Compound `O=C1C[C@H](c2cccc(Cl)c2)[C@@]2(C(=O)Nc3cc(Cl)ccc32)[C@H](c2cccc(Cl)c2)C1` yielded an inhibition in test [1] of 94.4%.

In the case of `Cc1ccc(F)cc1[C@@H]1NC(=O)C[C@H](c2cc(Cl)cnc2CC(C)(C)C(=O)O)[C@@]12C(=O)Nc1cc(Cl)ccc12`, the IC50 in test [2] worked out at 145 nM.

For `CC(C)(C)C[C@@H]1N[C@@H](C(=O)NCCCCO)[C@@H](c2cccc(Cl)c2)[C@@]1(C#N)c1ccc(Cl)cc1`, in test [2], the half-maximal inhibitory concentration (IC50) stood at 309 nM.

What is called Ki is a dissociation constant, usually derived from enzyme kinetics or from competition with a known ligand. In turn, `CC(C)(C)C[C@H]1N[C@@H](C(=O)NCCN2CCOCC2)[C@H](c2cccc(Cl)c2F)[C@@]12C(=O)Nc1cc(Cl)ccc12` returned a Ki in test [3] of 55000 nM. In other words, the double-digit micromolar range.

The compound `Clc1ccc2c(-c3c(-c4ccc5c(c4)OCO5)ncn3CC3CC3)c[nH]c2c1` gave an inhibitory constant (Ki) in test [4] of 1000 nM.

For the compound `CC(C)(C)C[C@@H]1N[C@@H](C(=O)NCC[C@H](O)CO)[C@@H](c2cc(F)cc(Cl)c2)[C@@]1(C#N)c1ccc(Cl)cc1F`, the IC50 in [2] amounted to 165 nM.

For the compound `Cc1ccc(F)cc1[C@H]1NC(=O)C=C(c2cccc(Cl)c2)[C@]12C(=O)Nc1cc(Cl)ccc12`, the IC50 in test [2] turned out to be 66 nM.

In the case of `CCOC(=O)[C@@]1(c2ccc(Cl)cc2)N=C(c2ccc(OC)cc2OC(C)C)N(C(=O)N2CCN(C(C)=O)CC2)[C@@H]1c1ccc(Cl)cc1`, in [5], the IC50 is 70 nM.

Compound `C=C(CC)[C@H]1N2CC(=O)N(CCCN(C)C)N=C2C[C@@H](c2cccc(Cl)c2)[C@]12C(=O)Nc1cc(Cl)ccc12` displayed an IC50 in [5] of 100 nM.

Consider `Cc1ccc(CN2C(=O)c3ccccc3C2(O[C@H]2C=C[C@@H](O)C2)c2ccc(Cl)cc2)cc1` (some centres not stated), for which, in test [5], inhibition was half-maximal at 1400 nM (IC50).

Turning to `CC(C)C1=C(C(=O)N2CCC[C@H]2C(=O)N(C)C)SC2=N[C@@](C)(c3ccc(Cl)nc3)[C@@H](c3ccc(Cl)cc3)N21`, the IC50 in test [6] stood at 40700 nM; in test [7] it was 14 nM; with NCI-H460, 1380 nM.

`COC(=O)[C@]1(c2ccc(Cl)cc2)N=CN(CC2CC2)[C@H]1c1ccc(Cl)cc1` registered a Ki in [4] of 3000 nM. In other words, the single-digit micromolar range.

As for `CC(=O)N1CCC(Oc2ccc(I)cc2[C@@H]2NC(=O)C[C@H](c3cccc(Cl)c3)[C@@]23C(=O)Nc2cc(Cl)ccc23)CC1`, in [8], half-maximal inhibition (IC50) required 34 nM.

`CCOC(=O)N1CCN(C(=O)[C@@]2(Sc3ccccc3)CC(=O)N(Cc3ccc(C#N)cc3)[C@@H]2c2c[nH]c3cc(Cl)ccc23)CC1`: the half-maximal inhibitory concentration (IC50) in [5] is 1000 nM.

`COc1cccc([C@]2(Cc3cccc(Cl)c3)C(=O)Nc3cc(Cl)ccc32)c1` yielded an IC50 in [5] of 280 nM.

In the case of `CC(C)C1=C(C(=O)N2C[C@H](F)C[C@H]2C(=O)N2CCNC3(CC3)C2)SC2=N[C@@](C)(c3ccc(Cl)nc3)[C@@H](c3ccc(Cl)c(F)c3)N21`, in test [5], the IC50 is 2.8 nM.

In turn, `COc1cc(C(=O)N(C)[C@@H](Cc2c[nH]c3ccccc23)C(=O)N2CCN(c3ccc([N+](=O)[O-])cc3)CC2)c([N+](=O)[O-])cc1OC` yielded an IC50 in [5] of 30 nM.

In the case of `Cc1ccc(F)cc1[C@@H]1NC(=O)C[C@H](c2ccccc2OC(C)(C)C(=O)N2CCC(F)(F)CC2)[C@@]12C(=O)Nc1cc(Cl)ccc12`, the IC50 in test [5] came out at 54 nM.

In the case of `Cc1cccc([C@H]2N(CC(=O)O)C(=O)C[C@@H](c3cccc(Cl)c3)[C@]23C(=O)Nc2cc(Cl)ccc23)c1` (racemic), half-maximal inhibition in [5] (IC50) required 370 nM.

As for `COc1cccc(C2(Cc3cccc(Cl)c3)C(=O)Nc3cc(Cl)ccc32)c1` (configuration not stated), the IC50 in test [5] turned out to be 460 nM.

In the case of `COC(=O)c1cccc(S(=O)(=O)N2c3ccc(C(=O)N4CCN(C)CC4)c(=O)n3[C@@H](c3ccc(Cl)cc3)[C@H]2c2ccc(Cl)cc2)c1`, the midpoint of inhibition in test [5], the IC50, lay at 460 nM.

In [9], `CC(C)Cc1cc(CCC(=O)O)ccc1-c1ccc(-c2ccc(OCC(=O)O)c(Cc3ccccc3)c2)c(Cc2ccccc2)c1` showed a Ki of 970 nM.

The compound `CC(C)(C)c1ncc(C2=N[C@@](C)(c3ccc(Cl)cc3)[C@@](C)(c3ccc(Cl)cc3)N2C(=O)N2CCN(CCOCCO)CC2)cn1` came in with an IC50 in test [5] of 31 nM.
